Square brackets hold non-standard residues; d marks the D form. Peptide text beside a SMILES is read from it.
How the values were obtained:
TEM-1 β-lactamase = TEM-1 β-lactamase (Escherichia coli, UniProt P62593); assay: β-lactamase colorimetry assay (TEM-1 inhibition); format: biochemical, E. coli; conditions: for TEM-1 inhibition compared with T61-25: β-lactamase colorimetry assay
From the text: The bacteria can express a β-lactamase and the antibacterial peptide can inhibit the ability of the β-lactamase to cleave a β-lactam ring. This can be measured using a beta lactamase inhibition assay like a commercially available beta lactamase inhibitor screening kit. These kits test the ability of a beta lactamase to hydrolyze a chromogenic substrate, which results in the generation of a colored product. The amount of color produced is directly proportional to the amount of beta-lactamase activity. In the presence of beta lactamase inhibitors, such as clavulanic acid or the antibacterial peptides described herein, the rate of substrate hydrolysis will decrease resulting in a decrease in the production of colored analyte. The non-peptide β-lactamase inhibitor can include clavulanate, clavulanic acid, sulbactam, taobactam, avibactam, relebacam, RG6080, or RPX7009.

PBP2a = PBP2a (Staphylococcus aureus, UniProt P07944); assay: PBP2a colorimetry assay; format: biochemical
PBP2a, sequence (P07944 whole entry): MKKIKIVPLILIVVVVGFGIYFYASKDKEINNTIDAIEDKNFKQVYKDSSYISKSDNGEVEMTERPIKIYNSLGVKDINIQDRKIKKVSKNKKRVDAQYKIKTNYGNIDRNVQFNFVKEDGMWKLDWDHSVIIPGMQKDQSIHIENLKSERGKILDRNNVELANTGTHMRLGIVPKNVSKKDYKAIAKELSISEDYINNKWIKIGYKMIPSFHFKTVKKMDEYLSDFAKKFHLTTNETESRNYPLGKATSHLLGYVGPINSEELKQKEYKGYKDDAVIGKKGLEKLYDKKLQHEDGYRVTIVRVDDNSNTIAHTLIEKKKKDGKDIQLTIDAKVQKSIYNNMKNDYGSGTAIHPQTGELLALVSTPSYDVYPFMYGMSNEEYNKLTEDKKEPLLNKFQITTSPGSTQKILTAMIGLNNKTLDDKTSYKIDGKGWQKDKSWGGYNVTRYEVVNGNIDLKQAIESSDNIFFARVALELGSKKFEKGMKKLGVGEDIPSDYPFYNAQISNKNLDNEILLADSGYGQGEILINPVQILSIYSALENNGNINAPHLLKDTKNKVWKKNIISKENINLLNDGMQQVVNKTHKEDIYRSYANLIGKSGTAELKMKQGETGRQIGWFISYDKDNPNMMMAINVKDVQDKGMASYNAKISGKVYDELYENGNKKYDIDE
From the text: Methicillin-resistant Staphylococcus aureus (MRSA) contains the mecA gene in a mobile genetic element found in all MRSA strains, which encodes penicillin-binding protein 2a (PBP2a). PBPs are membrane-bound enzymes that catalyze the transpeptidation reaction that is necessary for cross-linkage of peptidoglycan chains for cell wall formation and targeted by β-lactam. Because of the low affinity of PBP2a for all β-lactam antibiotics, it can substitute for other PBPs under high concentrations of f-lactam antibiotics. As a result. MRSA strains are highly resistant to β-lactam antibiotics.

[1] = 25% human serum, 0 hours and 24 hours (FIG. 1)
SAP231 = assay: Enhancement of cefazolin killing of MRSA; format: cell-based, Staphylococcus aureus; conditions: at the test concentrations, 0 μg/ml peptide
Procedure: FIGS. 4A and 4B are graphs showing RI-D-BP100-T61-25 combined with cefazolin and tested against both SAP231 (FIG. 4A) and NRS384 strain (FIG. 4B).
Additionally, the peptide's potency at enhancing cefazolin killing of MRSA was also tested. Cefazolin is a cephalosporin, which are improved β-lactams developed to overcome some of the early penicillin resistance. Cefazolin is a first line therapy for the treatment of Methicillin-susceptible Staphylococcus aureus (MSSA) infections. […] RI-D-BP100-T61-25 was also combined with cefazolin and tested against both SAP231 (FIG. 4A) and NRS384 strain (FIG. 4B).

TEM-1 β-lactamase, sequence (P62593 24-286 limits assumed): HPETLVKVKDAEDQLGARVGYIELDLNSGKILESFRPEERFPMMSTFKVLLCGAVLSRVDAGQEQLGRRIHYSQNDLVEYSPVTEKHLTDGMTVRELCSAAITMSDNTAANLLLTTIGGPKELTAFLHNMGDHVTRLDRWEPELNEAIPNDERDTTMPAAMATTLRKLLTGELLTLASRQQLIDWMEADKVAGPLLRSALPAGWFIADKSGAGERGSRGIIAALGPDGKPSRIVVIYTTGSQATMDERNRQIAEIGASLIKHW

## CC(C)C[C@H](NC(=O)[C@H](Cc1ccc(O)cc1)NC(=O)[C@H](NC(=O)[C@@H](N)CCCCN)[C@H](C)O)C(=O)N[C@@H](C)C(=O)N[C@@H](CCC(N)=O)C(=O)N[C@@H](C)C(=O)N[C@@H](C)C(=O)N[C@@H](C)C(=O)N[C@H](C(=O)NCC(=O)O)[C@@H](C)O [D-T2]
TEM-1 β-lactamase
  TEM-1 inhibition compared with T61-25: maintained comparable levels of TEM-1 inhibition as T61-25

## CC(C)C[C@@H](NC(=O)[C@@H](Cc1ccc(O)cc1)NC(=O)[C@H](NC(=O)[C@H](N)CCCCN)[C@H](C)O)C(=O)N[C@H](C)C(=O)N[C@H](CCC(N)=O)C(=O)N[C@H](C)C(=O)N[C@H](C)C(=O)N[C@H](C)C(=O)N[C@@H](C(=O)NCC(=O)O)[C@H](C)O [D-T61-25]
TEM-1 β-lactamase
  TEM-1 inhibition compared with T61-25: maintained comparable levels of TEM-1 inhibition as T61-25

## CC(C)C[C@H](NC(=O)[C@H](Cc1ccc(O)cc1)NC(=O)[C@@H](NC(=O)[C@@H](N)CCCCN)[C@@H](C)O)C(=O)N[C@@H](C)C(=O)N[C@@H](CCC(N)=O)C(=O)N[C@@H](C)C(=O)N[C@@H](C)C(=O)N[C@@H](C)C(=O)N[C@H](C(=O)NCC(=O)O)[C@@H](C)O [Inhibitor T61-25]
PBP2a
  inhibition of PBP2a activity: capable of inhibiting PBP2a activity at μM range

## CC[C@@H](C)[C@@H](NC(=O)[C@@H](CC(C)C)NC(=O)[C@@H](CCCCN)NC(=O)[C@@H](Cc1ccc(O)cc1)NC(=O)[C@@H](CC(C)C)NC(=O)[C@@H](CCCCN)NC(=O)[C@H](NC(=O)[C@@H](Cc1ccc(O)cc1)NC(=O)[C@@H](CC(C)C)NC(=O)[C@@H](C)NC(=O)[C@@H](CCC(N)=O)NC(=O)[C@@H](C)NC(=O)[C@@H](C)NC(=O)[C@@H](C)NC(=O)[C@H](NC(=O)CN)[C@H](C)O)[C@H](C)O)C(=O)N[C@H](CCCCN)C(=O)N[C@H](CCCCN)C(=O)N[C@H](Cc1ccccc1)C(=O)N[C@H](CC(C)C)C(=O)N[C@H](CCCCN)C(=O)N[C@H](CCCCN)C(=O)O [RI-D-BP100-T61-25, dGdTdAdAdAdQdAdLdYdTdKdLdYdKdLdIdKdKdFdLdKdK] (H-G[dT][dA][dA][dA][dQ][dA][dL][dY][dT][dK][dL][dY][dK][dL][dI][dK][dK][dF][dL][dK][dK]-OH; N-terminus and C-terminus assumed)
[1]
  serum stability: better than the L-peptide BP100-T61-25

## CC(C)C[C@@H](NC(=O)[C@@H](C)NC(=O)[C@@H](CCC(N)=O)NC(=O)[C@@H](C)NC(=O)[C@@H](C)NC(=O)[C@@H](C)NC(=O)[C@H](NC(=O)CN)[C@H](C)O)C(=O)N[C@H](Cc1ccc(O)cc1)C(=O)N[C@@H](C(=O)N[C@H](CCCCN)C(=O)O)[C@H](C)O [RI-D-T61-25, dGdTdAdAdAdQdAdLdYdTdK]
TEM-1 β-lactamase
  Ki: 880 ± 40 nM
  TEM-1 inhibition compared with T61-25: maintained comparable levels of TEM-1 inhibition as T61-25

## Cc1nnc(SCC2=C(C(=O)O)N3C(=O)[C@@H](NC(=O)Cn4cnnn4)[C@H]3SC2)s1 [cefazolin, Cefazolin]
SAP231
  inhibition of SAP231 growth by cefazolin alone: partially inhibited
